Values of other authors, collected in patent publication US7060295B2, “Formulations for the prevention and treatment of insulin resistance and type 2 diabetes mellitus” (ChronoRX LLC, priority 2000, dated 2006).

Key:
[1] = in vivo
[2] = tested on: insulin secreting β-cells
[3] = supplementation
sulfonylurea receptor = sulfonylurea receptor (Homo sapiens, UniProt Q09428); settings: β-cell membrane receptors
[4] = not given; remark: listed apart in the source
[5] = in vivo; remark: listed apart in the source
[6] = not given; remark: listed apart in the source
[7] = 1 year, 457 non-diabetic patients with android (abdominal) obesity
[8] = in vivo; remark: listed apart in the source
[9] = 600 mg/day, used alone, obese type 2 diabetes patients
pancreatic islets = settings: islets simultaneously exposed to IL-1 beta
[10] = oral 60 mg twice daily for 8 weeks

sulfonylurea receptor, sequence (Q09428 whole entry): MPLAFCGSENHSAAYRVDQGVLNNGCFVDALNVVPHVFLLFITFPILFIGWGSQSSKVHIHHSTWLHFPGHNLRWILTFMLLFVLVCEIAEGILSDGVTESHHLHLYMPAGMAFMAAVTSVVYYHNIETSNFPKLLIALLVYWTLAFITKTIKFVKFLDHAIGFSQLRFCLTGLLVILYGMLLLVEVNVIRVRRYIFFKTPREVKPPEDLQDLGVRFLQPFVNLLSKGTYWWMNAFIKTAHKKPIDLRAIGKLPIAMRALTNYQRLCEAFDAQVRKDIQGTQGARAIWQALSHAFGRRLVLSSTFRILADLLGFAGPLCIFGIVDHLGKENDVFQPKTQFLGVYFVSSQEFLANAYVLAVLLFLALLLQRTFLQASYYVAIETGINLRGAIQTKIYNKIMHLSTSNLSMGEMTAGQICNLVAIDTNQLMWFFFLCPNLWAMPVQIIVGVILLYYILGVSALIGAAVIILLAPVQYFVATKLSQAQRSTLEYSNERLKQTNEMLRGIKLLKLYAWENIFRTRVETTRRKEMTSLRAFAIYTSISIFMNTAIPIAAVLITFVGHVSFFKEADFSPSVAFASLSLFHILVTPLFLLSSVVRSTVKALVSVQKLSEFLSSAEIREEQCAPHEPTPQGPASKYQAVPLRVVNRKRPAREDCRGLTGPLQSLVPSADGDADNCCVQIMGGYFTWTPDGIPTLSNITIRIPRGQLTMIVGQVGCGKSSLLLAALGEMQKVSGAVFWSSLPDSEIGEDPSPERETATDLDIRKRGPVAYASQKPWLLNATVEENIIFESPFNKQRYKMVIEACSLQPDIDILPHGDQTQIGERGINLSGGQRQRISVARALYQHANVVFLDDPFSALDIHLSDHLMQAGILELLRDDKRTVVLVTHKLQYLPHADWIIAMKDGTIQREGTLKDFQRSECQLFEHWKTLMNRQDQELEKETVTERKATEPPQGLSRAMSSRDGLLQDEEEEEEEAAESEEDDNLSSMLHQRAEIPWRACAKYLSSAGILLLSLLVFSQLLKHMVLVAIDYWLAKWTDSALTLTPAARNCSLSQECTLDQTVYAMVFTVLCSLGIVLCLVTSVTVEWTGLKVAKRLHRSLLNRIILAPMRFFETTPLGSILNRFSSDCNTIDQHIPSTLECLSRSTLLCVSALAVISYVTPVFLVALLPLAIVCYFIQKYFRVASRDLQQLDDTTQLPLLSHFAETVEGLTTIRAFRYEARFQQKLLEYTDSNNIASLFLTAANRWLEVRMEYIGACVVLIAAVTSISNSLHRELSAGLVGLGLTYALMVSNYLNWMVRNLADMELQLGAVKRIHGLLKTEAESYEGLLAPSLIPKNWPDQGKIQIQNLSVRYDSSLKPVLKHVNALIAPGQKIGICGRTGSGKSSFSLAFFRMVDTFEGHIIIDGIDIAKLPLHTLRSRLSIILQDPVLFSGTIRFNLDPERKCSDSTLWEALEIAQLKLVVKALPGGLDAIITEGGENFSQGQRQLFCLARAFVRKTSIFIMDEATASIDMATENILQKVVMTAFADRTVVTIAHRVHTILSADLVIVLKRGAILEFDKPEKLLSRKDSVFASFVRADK
sulfonylurea receptor, sequence (Q14654 whole entry partner): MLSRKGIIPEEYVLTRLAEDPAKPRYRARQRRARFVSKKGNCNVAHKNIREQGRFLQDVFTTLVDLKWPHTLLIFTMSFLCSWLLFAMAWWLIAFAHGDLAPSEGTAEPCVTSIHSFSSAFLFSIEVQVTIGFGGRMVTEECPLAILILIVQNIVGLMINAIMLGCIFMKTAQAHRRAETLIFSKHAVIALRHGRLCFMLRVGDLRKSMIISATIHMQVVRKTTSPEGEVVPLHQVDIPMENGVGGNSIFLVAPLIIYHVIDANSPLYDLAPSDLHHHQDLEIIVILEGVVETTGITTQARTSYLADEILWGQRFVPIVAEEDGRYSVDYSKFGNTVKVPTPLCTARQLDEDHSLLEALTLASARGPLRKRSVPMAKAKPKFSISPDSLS

COc1ccc(Cl)cc1C(=O)NCCc1ccc(S(=O)(=O)NC(=O)NC2CCCCC2)cc1 [Glyburide]
glycolytic flux and lactate production (perfused rat hearts): dramatic increase

CCCCNC(=O)NS(=O)(=O)c1ccc(C)cc1 [Tolbutamide]
Duration of Action [1]: 6 to 12 h

CCCNC(=O)NS(=O)(=O)c1ccc(Cl)cc1 [Chlorpropamide]
Duration of Action [1]: 60 h

O=S(=O)([O-])[O-].[O]=[V+2] [vanadyl sulfate]
duration of effects after discontinuation (100 mg/day for 3 weeks): up to 2 weeks | hepatic and peripheral insulin sensitivity (100 mg/day, after 3 weeks): appear to improve

O=C1O[C@H]([C@@H](O)CO)C(O)=C1O [ascorbate, ascorbic acid]
decrease of cellular insulin glycation [2]: 66–80%

[Cr] [Cr, Chromium]
reduction of metformin requirements [3]: more than one-half

Cc1cnc(C(=O)NCCc2ccc(S(=O)(=O)NC(=O)NC3CCCCC3)cc2)cn1 [Glipizide]
concentration range that saturates sulfonylurea receptors (sulfonylurea receptor): low nM | Duration of Action [1]: 12 to 24 h

C[N+](C)(C)CC(O)CC(=O)[O-] (stereo not drawn) [carnitine, beta-hydroxy-gamma-N-trimethylaminobutyric acid]
amount absorbed from the intestine ([4]; oral): 15 to 87 % of ingested carnitine | tissue concentrations relative to plasma ([4]; skeletal and cardiac muscle, active transport): 20- to 50 fold

CN(C)C(=N)N=C(N)N [Metformin, metformin]
lactic acidosis, reported frequency [5]: 3 cases per 100,000 patient-years | lactic acidosis, reported incidence [5]: 0.03 /1,000 patient-years exposure | decrease of low-density lipoprotein (LDL) cholesterol levels ([6]; monotherapy): 10% to 15% | decrease of plasma triglyceride levels ([6]; monotherapy): 10% to 15% | weight loss ([6]; patients with type 2 diabetes, first 6 months of treatment): 2 to 3 kg | weight change [7]: significant weight loss | gastrointestinal side effects (diarrhea, nausea, abdominal pain, metallic taste) [8]: 20% to 30%

vitamin E
insulin efficiency [9]: further worsen insulin efficiency

NC(=O)c1cccnc1 [nicotinamide]
concentration of maximum effect on recovery of glucose-induced insulin secretion (pancreatic islets): 25 mmol/L

CCC1=C(C)CN(C(=O)NCCc2ccc(S(=O)(=O)NC(=O)N[C@H]3CC[C@H](C)CC3)cc2)C1=O [Glimepiride]
Duration of Action [1]: 16 to 24 h

Cc1cnc(C(=O)NCCc2ccc(S(=O)(=O)NC(=O)NC3CCCCC3)cc2)cn1 [Glipizide (XL), Glipizide]
Duration of Action [1]: 24 h

COC1=C(OC)C(=O)C(C/C=C(\C)CC/C=C(\C)CC/C=C(\C)CC/C=C(\C)CC/C=C(\C)CC/C=C(\C)CC/C=C(\C)CC/C=C(\C)CC/C=C(\C)CCC=C(C)C)=C(C)C1=O [coenzyme Q10, Ubiquinone]
HDL-cholesterol [10]: increased | systolic and diastolic blood pressure, fasting and 2-h plasma insulin, glucose, triglycerides, lipid peroxides, malondialdehyde and diene conjugates [10]: all reduced

CC(=O)c1ccc(S(=O)(=O)NC(=O)NC2CCCCC2)cc1 [Acetohexamide]
Duration of Action [1]: 12 to 18 h
